Laboratory results as given in ChEMBL document CHEMBL1201862, “PubChem BioAssay data set” (2004).
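Values below derive from 48-hour exposures of cells grown in 96-well plates, with endpoints linearly interpolated between the two concentrations bracketing the appropriate inhibition level. GI50 = concentration required for 50% inhibition of growth.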 The source made the active and inactive calls. No stated cut-off is given here; in the data, active = GI50 up to about 1.1 µM and inactive = higher.

Experiments:
Experiment in all cases: NCI anticancer screen, dose series, 48 h
A549 = test system: A549
ACHN = test system: ACHN
CAKI-1 = test system: CAKI-1
COLO 205 = test system: COLO 205
DLD-1 = test system: DLD-1
DMS-114 = test system: DMS-114
DMS-273 = test system: DMS-273
HCC 2998 = test system: HCC 2998
HCT-116 = test system: HCT-116
HCT-15 = test system: HCT-15
HOP-62 = test system: HOP-62
HT-29 = test system: HT-29
IGROV-1 = test system: IGROV-1
K562 = test system: K562
KM-20L2 = test system: KM-20L2
KM12 = test system: KM12
LOX IMVI = test system: LOX IMVI
LXFL 529 = test system: LXFL 529
M14 = test system: M14
M19-MEL = test system: M19-MEL
MOLT-4 = test system: MOLT-4
Malme-3M = test system: Malme-3M
NCI-H226 = test system: NCI-H226
NCI-H23 = test system: NCI-H23
NCI-H460 = test system: NCI-H460
NCI-H522 = test system: NCI-H522
OVCAR-3 = test system: OVCAR-3
OVCAR-4 = test system: OVCAR-4
OVCAR-5 = test system: OVCAR-5
OVCAR-8 = test system: OVCAR-8
RPMI-8226 = test system: RPMI-8226
RXF 393 = test system: RXF 393
RXF 631 = test system: RXF 631
SF-268 = test system: SF-268
SF-295 = test system: SF-295
SF-539 = test system: SF-539
SK-MEL-28 = test system: SK-MEL-28
SK-MEL-2 = test system: SK-MEL-2
SK-MEL-5 = test system: SK-MEL-5
SN12C = test system: SN12C
SNB-19 = test system: SNB-19
SNB-75 = test system: SNB-75
SNB-78 = test system: SNB-78
SR = test system: SR
SW-620 = test system: SW-620
TK-10 = test system: TK-10
U-251 = test system: U-251
UACC-257 = test system: UACC-257
UACC-62 = test system: UACC-62
UO-31 = test system: UO-31
XF498 = test system: XF498
786-0 = test system: 786-0
A498 = test system: A498
CCRF-CEM = test system: CCRF-CEM
EKVX = test system: EKVX
HL-60 = test system: HL-60
HOP-18 = test system: HOP-18
HOP-92 = test system: HOP-92
SK-OV-3 = test system: SK-OV-3

For `CCOC(=O)[C@H]1Nc2c(cccc2[N+](=O)[O-])C2c3ccccc3CC21` (some centres not stated), the GI50 (A549) was > 100 µM (inactive), the GI50 (ACHN) was 28.4 µM (inactive) and the GI50 (CAKI-1) was > 100 µM (inactive). The GI50 (COLO 205) was > 100 µM (inactive), the GI50 (DLD-1) was > 100 µM (inactive) and the GI50 (DMS-114) was > 100 µM (inactive). The GI50 (DMS-273) was > 100 µM (inactive), the GI50 (HCC 2998) was > 100 µM (inactive) and the GI50 (HCT-116) was > 100 µM (inactive). The GI50 (HCT-15) was > 100 µM, the GI50 (HOP-62) was > 100 µM (inactive) and the GI50 (HT-29) was 18.3 µM (inactive). The GI50 (IGROV-1) was > 100 µM (inactive), the GI50 (K562) was > 100 µM (inactive) and the GI50 (KM-20L2) was > 100 µM (inactive). The GI50 (KM12) was > 100 µM (inactive), the GI50 (LOX IMVI) was > 100 µM (inactive) and the GI50 (LXFL 529) was > 100 µM (inactive). The GI50 (M14) was > 100 µM (inactive), the GI50 (M19-MEL) was > 100 µM (inactive) and the GI50 (MOLT-4) was > 100 µM (inactive). For the same compound, the GI50 (Malme-3M) was > 100 µM (inactive), the GI50 (NCI-H226) was > 100 µM (inactive) and the GI50 (NCI-H23) was > 100 µM (inactive). The GI50 (NCI-H460) was > 100 µM (inactive), the GI50 (NCI-H522) was > 100 µM (inactive) and the GI50 (OVCAR-3) was 40.8 µM (inactive). For the same compound, the GI50 (OVCAR-4) was 36.9 µM (inactive), the GI50 (OVCAR-5) was > 100 µM (inactive) and the GI50 (OVCAR-8) was > 100 µM (inactive). For the same compound, the GI50 (RPMI-8226) was > 100 µM (inactive), the GI50 (RXF 393) was 3.15 µM (inactive) and the GI50 (RXF 631) was > 100 µM (inactive). For the same compound, the GI50 (SF-268) was > 100 µM (inactive), the GI50 (SF-295) was 35.6 µM (inactive) and the GI50 (SF-539) was > 100 µM (inactive). The GI50 (SK-MEL-28) was > 100 µM (inactive), the GI50 (SK-MEL-2) was > 100 µM (inactive) and the GI50 (SK-MEL-5) was > 100 µM (inactive). The GI50 (SN12C) was > 100 µM (inactive), the GI50 (SNB-19) was > 100 µM (inactive) and the GI50 (SNB-75) was > 100 µM (inactive). The GI50 (SNB-78) was > 100 µM (inactive), the GI50 (SR) was 59.8 µM (inactive) and the GI50 (SW-620) was > 100 µM (inactive). The GI50 (TK-10) was > 100 µM (inactive), the GI50 (U-251) was > 100 µM (inactive) and the GI50 (UACC-257) was 27.7 µM (inactive). For the same compound, the GI50 (UACC-62) was > 100 µM (inactive), the GI50 (UO-31) was > 100 µM (inactive) and the GI50 (XF498) was > 100 µM (inactive).
`CC1=CCP(C(F)(F)F)P(C(F)(F)F)C1` (configuration not stated) was tested, and the GI50 (786-0) was > 100 µM (inactive), the GI50 (A498) was > 100 µM (inactive) and the GI50 (A549) was > 100 µM (inactive). The GI50 (ACHN) was > 100 µM (inactive), the GI50 (CAKI-1) was > 100 µM (inactive) and the GI50 (CCRF-CEM) was > 100 µM (inactive). For the same compound, the GI50 (COLO 205) was > 100 µM (inactive), the GI50 (DLD-1) was > 100 µM (inactive) and the GI50 (DMS-114) was > 100 µM (inactive). For the same compound, the GI50 (EKVX) was > 100 µM (inactive), the GI50 (HCC 2998) was > 100 µM (inactive) and the GI50 (HCT-116) was > 100 µM (inactive). The GI50 (HCT-15) was > 100 µM, the GI50 (HL-60) was > 100 µM (inactive) and the GI50 (HOP-18) was > 100 µM (inactive). For the same compound, the GI50 (HOP-62) was > 100 µM (inactive), the GI50 (HOP-92) was > 100 µM (inactive) and the GI50 (HT-29) was > 100 µM (inactive). The GI50 (IGROV-1) was > 100 µM (inactive), the GI50 (K562) was > 100 µM (inactive) and the GI50 (KM-20L2) was > 100 µM (inactive). The GI50 (KM12) was > 100 µM (inactive), the GI50 (LOX IMVI) was > 100 µM (inactive) and the GI50 (LXFL 529) was > 100 µM (inactive). The GI50 (M14) was > 100 µM (inactive), the GI50 (M19-MEL) was > 100 µM (inactive) and the GI50 (MOLT-4) was > 100 µM (inactive). The GI50 (Malme-3M) was > 100 µM (inactive), the GI50 (NCI-H226) was > 100 µM (inactive) and the GI50 (NCI-H23) was > 100 µM (inactive). For the same compound, the GI50 (NCI-H460) was > 100 µM (inactive), the GI50 (NCI-H522) was > 100 µM (inactive) and the GI50 (OVCAR-3) was > 100 µM (inactive). The GI50 (OVCAR-4) was > 100 µM (inactive), the GI50 (OVCAR-5) was > 100 µM (inactive) and the GI50 (OVCAR-8) was > 100 µM (inactive). The GI50 (RPMI-8226) was > 100 µM (inactive), the GI50 (RXF 393) was 5.55 µM (inactive) and the GI50 (RXF 631) was > 100 µM (inactive). The GI50 (SF-268) was > 100 µM (inactive), the GI50 (SF-295) was > 100 µM (inactive) and the GI50 (SF-539) was > 100 µM (inactive). The GI50 (SK-MEL-28) was > 100 µM (inactive), the GI50 (SK-MEL-5) was > 100 µM (inactive) and the GI50 (SK-OV-3) was > 100 µM (inactive). The GI50 (SN12C) was > 100 µM (inactive), the GI50 (SNB-19) was > 100 µM (inactive) and the GI50 (SNB-75) was > 100 µM (inactive). For the same compound, the GI50 (SNB-78) was > 100 µM (inactive), the GI50 (SR) was > 100 µM (inactive) and the GI50 (SW-620) was > 100 µM (inactive). For the same compound, the GI50 (TK-10) was > 100 µM (inactive), the GI50 (U-251) was > 100 µM (inactive) and the GI50 (UACC-257) was > 100 µM (inactive). The GI50 (UACC-62) was > 100 µM (inactive) and the GI50 (UO-31) was > 100 µM (inactive).
